Experimental data from ChEMBL document CHEMBL6103653, “Alstolarsines A-E, Indoline Alkaloids with Two Different Carbon Skeletons from Alstonia scholaris” (J Nat Prod, 2025).

Tests used:
Homo sapiens = species on record: Homo sapiens; assay: Inhibition of DRAK2 autophosphorylation (unknown origin) at 20 microg/ml by ADP-Glo assay relative to control; details: dose 20.0 µg/ml
[1] = target: T1, ATP-citrate synthase (Homo sapiens) (UniProt P53396); assay: Inhibition of ATP citrate lyase (unknown origin) at 20 microg/ml by ADP-Glo assay relative to control; details: dose 20.0 µg/ml
T1 sequence (whole entry): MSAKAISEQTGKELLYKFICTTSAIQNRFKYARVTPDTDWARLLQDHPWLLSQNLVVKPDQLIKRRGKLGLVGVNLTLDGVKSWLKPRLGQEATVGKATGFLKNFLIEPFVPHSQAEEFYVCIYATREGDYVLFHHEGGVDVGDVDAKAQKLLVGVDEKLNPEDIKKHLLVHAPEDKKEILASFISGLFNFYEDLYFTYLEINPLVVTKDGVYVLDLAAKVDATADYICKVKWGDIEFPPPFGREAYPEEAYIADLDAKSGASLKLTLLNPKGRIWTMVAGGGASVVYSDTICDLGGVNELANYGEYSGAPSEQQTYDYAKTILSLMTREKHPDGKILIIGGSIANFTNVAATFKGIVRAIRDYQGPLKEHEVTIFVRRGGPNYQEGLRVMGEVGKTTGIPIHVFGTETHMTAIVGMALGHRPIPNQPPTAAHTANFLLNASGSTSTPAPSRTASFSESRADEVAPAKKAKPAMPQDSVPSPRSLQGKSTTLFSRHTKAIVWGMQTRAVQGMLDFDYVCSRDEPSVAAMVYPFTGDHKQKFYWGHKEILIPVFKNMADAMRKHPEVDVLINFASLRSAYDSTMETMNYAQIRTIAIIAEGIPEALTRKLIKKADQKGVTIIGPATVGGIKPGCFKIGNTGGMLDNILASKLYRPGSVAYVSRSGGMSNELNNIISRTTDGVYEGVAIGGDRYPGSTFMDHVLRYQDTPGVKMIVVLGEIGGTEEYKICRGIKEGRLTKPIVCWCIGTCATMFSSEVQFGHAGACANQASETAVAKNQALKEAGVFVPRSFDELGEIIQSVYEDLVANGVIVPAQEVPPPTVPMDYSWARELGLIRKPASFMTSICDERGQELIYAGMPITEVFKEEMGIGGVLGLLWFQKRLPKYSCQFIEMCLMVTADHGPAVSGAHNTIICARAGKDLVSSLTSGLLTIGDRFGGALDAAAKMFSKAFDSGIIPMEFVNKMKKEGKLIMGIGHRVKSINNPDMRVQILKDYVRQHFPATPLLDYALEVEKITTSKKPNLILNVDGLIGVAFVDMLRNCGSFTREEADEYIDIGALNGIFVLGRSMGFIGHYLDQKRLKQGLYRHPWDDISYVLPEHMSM

inhibition (Homo sapiens) [%]	inhibition [1] [%]	Compound
16.5	5.1	C/C=C1/C[N@@+]2(C)CC[C@@]34c5ccccc5N[C@]32C(=O)[C@@H]2[C@H](C)OC[C@@]4(C(=O)[O-])[C@H]12
49.2	17	C/C=C1/C[N@@+]2(C)CC[C@@]34c5ccccc5N[C@]32C(=O)[C@H]2[C@@H]1[C@]4(C(=O)[O-])CO[C@@H]2C
4.5	5.5	C/C=C1/C[N@@+]2(C)CC[C@@]34c5ccccc5N[C@]32C(=O)[C@]2(C)OC[C@@]4(C(=O)[O-])[C@H]12
47.7	49.2	C/C=C1/C[N@@+]2(C)CC[C@@]34c5ccccc5N[C@]32C(=O)[C@@H]2COC[C@@]4(C(=O)[O-])[C@H]12
